Results published in ChEMBL document CHEMBL3988442, “University of Dundee, Small-Polar-MMV Screening Library” (2021).

Tests used:
[1] = microbe, parasite or virus in culture; details: Mycobacterium tuberculosis, 96 h, read-out: pIC50 (converted)
[2] = microbe, parasite or virus in culture; details: Mycobacterium tuberculosis, 72 h, read-out: pIC50 (converted)

Compound | IC50 [1] | IC50 [2]
COc1coc(CN2CCCC(CCc3ccc(F)cc3)C2)cc1=O (stereo not given) | 23.1 µM | > 50.1 µM
COc1cccc2c1CCC2N (stereo not given) | > 501 µM | 223 µM
Ic1nnnn1-c1ccccc1 | 108 µM | 147 µM
O=c1c2sccc2nc2n1CCN(Cc1ccc(F)c(F)c1)CC2 | 4.05 µM | > 50.1 µM
CC(CN)CNC(=O)c1ccc(C(F)(F)F)cc1 (stereo not given) | > 501 µM | > 501 µM
Cc1nn(C2CCCC2)c2nc(C(C)(C)CN3CCN(C)CC3)[nH]c12 | > 50.1 µM | > 50.1 µM
Clc1ccccc1CN1CCc2nc(C3CCNCC3)ncc2C1 | > 50.1 µM | 4.89 µM
Cc1ccc(NCc2ncc(C(C)(C)C)o2)c(Cl)c1 | 9.14 µM | 8.32 µM
CC(C)C(O)CCNC(=O)Cc1cccc(O)c1 (stereo not given) | > 501 µM | 430 µM
CC(C)c1ccc(NC(=O)CN)cc1 | 204 µM | 245 µM
CC1(C)CCC(C(=O)N2CCCO2)c2ccccc21 (stereo not given) | > 50.1 µM | > 50.1 µM
COc1ccc2c(c1)CN(C(=O)C1CCCOC1)CC2 (stereo not given) | > 501 µM | > 501 µM
Cc1ccc(C(=O)N2CCCC(c3cc(C(F)(F)F)[nH]n3)C2)o1 (stereo not given) | 26.2 µM | 15.4 µM
O=C(Nc1cc(Cl)ccc1F)C1=COCCO1 | 265 µM | 228 µM
CN1CCC(N(C)CCC(=O)N2CCC(CCc3ccccc3)CC2)C1 (stereo not given) | 35.3 µM | 41.5 µM
CCOCC(=O)NCC(Cc1cccc(F)c1)n1cccc1 (stereo not given) | 11.7 µM | 10.4 µM
CCCc1ccc(CN2C[C@H](OCC)[C@@H](O)C2)o1 | 241 µM | 298 µM
N#CC1(C(=O)NCc2ccccc2F)CC1 | > 501 µM | > 501 µM
Cc1nc(N2CCCC2)nc2c1CCN(Cc1ccoc1)CC2 | 14.7 µM | 22.8 µM
CCSc1nc2ccccc2c(=O)n1OCC(=O)OC | > 50.1 µM | 24.9 µM
COCCNCC(=O)Nc1cccc(CSC)c1 | > 501 µM | 374 µM
COc1cccc2c1CCNCC2 | 348 µM | 271 µM
C=C(C)CN1C(=O)Nc2ccccc2S1(=O)=O | > 501 µM | 349 µM
O=C(NCC(=O)N1CCCC1)c1csc2ccccc12 | 71.2 µM | 43.9 µM
CCc1ncc(C(=O)N2CCN(c3nccs3)CC2)s1 | > 501 µM | 79.4 µM

Compound | IC50 [1] | IC50 [2]
CN1CCCN(C(=O)c2ccco2)c2ccccc21 | 191 µM | 119 µM
CC(C)CCNC(=O)Nc1ccc(-n2cccn2)nc1 | 90 µM | 103 µM
CCn1ccc(C(=O)NC(C)c2ccccc2)n1 (stereo not given) | 182 µM | 84.4 µM
NC1CCCN(S(=O)(=O)C=Cc2cccc(Cl)c2)C1 (stereo not given) | 257 µM | 216 µM
CN(C)c1nc(-c2ccc3c(c2)CCC(=O)N3)cs1 | 201 µM | 120 µM
COc1cccc([C@@H]2C[C@H]2N)c1 | > 501 µM | 163 µM
CN(Cc1ccc(Oc2ccccc2)cc1)C(=O)CN | 157 µM | 130 µM
CN(C)c1cc(C2CCCN(C(=O)c3noc4c3CCCC4)C2)ccn1 (stereo not given) | 35.7 µM | 40 µM
CC1Cc2ccccc2N1C(=O)c1ccccn1 (stereo not given) | > 501 µM | > 501 µM
CN(C)S(=O)(=O)N1CCCC1c1ccccc1Br (stereo not given) | 273 µM | 206 µM
Cc1ccc(NC2CCN(C(=O)C(C)n3cncn3)CC2)nn1 (stereo not given) | > 50.1 µM | > 50.1 µM
COC(CNC(=O)N1CCSCC1)c1ccc(F)cc1 (stereo not given) | > 501 µM | > 501 µM
CCC(CO)NCc1ccc(-c2ccc(F)c(Cl)c2)o1 (stereo not given) | 13.2 µM | 35.4 µM
Clc1ccc(-c2nnc([C@H]3CCN(C4CCCCC4)C3)o2)cc1 | 24.2 µM | 7.04 µM
CC(C)c1ncc(C(=O)N2CCS(=O)(=O)CC2)cn1 | > 501 µM | > 501 µM
CSc1ccc2c(c1)CCN(C(=O)C1CCNC1)C2 (stereo not given) | > 501 µM | 168 µM
CSc1cccc(CN(C)C(=O)CNC2CC2)c1 | > 501 µM | 297 µM
CCN(C(=O)CN1CCCC1Cc1ccccc1)c1ccccc1 (stereo not given) | > 50.1 µM | 44.2 µM
CN(C)C(=O)c1csc(-c2ccccc2)n1 | > 501 µM | > 501 µM
Cn1cc(CC(=O)Nc2ccc(I)cn2)cn1 | > 501 µM | 283 µM
O=C(c1cccnc1)N(CCO)Cc1cc(Br)ccc1F | > 50.1 µM | > 50.1 µM
O=C1N(Cc2cccnc2)CCC12CCCN(c1ncccn1)C2 (stereo not given) | > 50.1 µM | > 50.1 µM
CCNc1ncc(C(=O)N(C)Cc2ccsc2)cn1 | > 501 µM | > 501 µM
CN1CCCN(Cc2cc(F)cc(F)c2)CC1=O | 211 µM | 169 µM
CN(CC1(C)COC1)C(=O)c1cc(-c2cnn(C)c2)nc2ccccc12 | > 50.1 µM | > 50.1 µM

Compound | IC50 [1] | IC50 [2]
OC(Cn1nnc(-c2ccsc2)n1)CC(F)(F)F (stereo not given) | 39.2 µM | 56.5 µM
CN(C)c1cc(CNC(=O)c2ccc(Br)o2)ccn1 | > 501 µM | > 501 µM
Cc1ccc(-c2cc(CS(=O)(=O)NC3CCCNC3=O)on2)cc1 (stereo not given) | > 50.1 µM | > 50.1 µM
c1cnc(-c2nc(C3CCOC3)no2)cn1 (stereo not given) | > 50.1 µM | > 50.1 µM
COCCN(C)CCNC(=O)c1cc2ccccc2[nH]1 | > 501 µM | > 501 µM
CC(O)CN1C(=O)C=CC1=O (stereo not given) | 286 µM | 135 µM
COc1ccnc(CN2CCCC(CCc3ccc(F)cc3)C2)c1OC (stereo not given) | 20.9 µM | 34.7 µM
CC(CO)(CO)NCc1cnn(-c2ccc(Br)cc2)c1 | 393 µM | 238 µM
CCN1CCN(S(=O)(=O)c2c[nH]c(C(C)C)n2)c2ccccc21 | > 50.1 µM | > 50.1 µM
COc1ccc(OCCSc2n[nH]c(N)n2)cc1 | 220 µM | 199 µM
CC(C)(C)n1cc(NC(=O)C2CN(Cc3ccccc3)CCO2)cn1 (stereo not given) | > 50.1 µM | > 50.1 µM
CCN1CCN(C(=O)c2ccc(C)c(C)c2)CC1 | > 501 µM | > 501 µM
Cc1ccc(NC2CCCN(Cc3ccc(Cl)cc3)C2)nn1 (stereo not given) | 6.67 µM | 7.35 µM
Cc1cnc(NC(=O)c2csc(NC3CCCC3)n2)s1 | > 50.1 µM | > 50.1 µM
CC(=O)Nc1nc(C(=O)NCCOc2ccc(C)cc2)cs1 | > 50.1 µM | > 50.1 µM
O=c1[nH]cnc2cccc(O)c12 | > 501 µM | > 501 µM
Cc1c(C(=O)Nc2ccc3c(c2)OCCO3)cnn1C | > 501 µM | > 501 µM
CN(C)C(=O)c1nnn(-c2ccc(Br)cc2)n1 | 14.2 µM | 12.6 µM
COc1ccc(C(=O)N(C)CCn2cccn2)cc1 | > 501 µM | > 501 µM
CN1CCN(C(=O)c2cc(-c3cccs3)on2)CC1 | 107 µM | 171 µM
N#CC1(NC(=O)COc2cc(Cl)cc(Cl)c2)CCSC1 (stereo not given) | > 50.1 µM | > 50.1 µM
CC(C)n1nccc1NC(=O)NCCc1nc2ccc(F)cc2n1C | > 50.1 µM | > 50.1 µM
CN(Cc1nccs1)C(=O)C1COc2ccccc2C1 (stereo not given) | 195 µM | 242 µM
CCn1nnnc1SCc1cc(C#N)ccc1F | 87.5 µM | 42.7 µM
Cn1cc(C(N)=O)c(NC(=O)c2ccc(Br)cc2)n1 | > 501 µM | 257 µM
